These results are taken from PubChem BioAssay (NCI).

Common to all, as to assay: NCI anticancer screen, dose series, 48 h
Assay [1] has as its system U251 CNS.
Assay [2] relates to SF-539 CNS.
Assay [3] deals with NCI-H23 lung.
The test system of assay [4] is TK-10 renal.
For assay [5], the system named is HT29 colon.
In assay [6] the test system is SK-MEL-5 melanoma.
In assay [7] the test system is SR leukemia.
Assay [8] concerns OVCAR-4 ovarian.
The test system of assay [9] is MALME-3M melanoma.
Assay [10] concerns HOP-62 NSCLC.

Each structure is given as a SMILES string.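 Briefly, cells in 96-well plates were exposed to five compound concentrations for 48 h, and endpoints were estimated by linear interpolation. GI50: concentration for 50% inhibition of growth. TGI denotes the concentration required for complete inhibition of growth.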

For `CCCc1cc2c(=O)c(C(=O)OC)c[nH]c2cc1N(CC)CC`, the GI50 in assay [1] was 18.2 µM; in assay [2], 34 µM; in assay [3] it was 44.5 µM; in assay [4], 69.1 µM; in assay [5], 72.1 µM; in assay [6] it was 31.9 µM. The GI50 in assay [7] was 39.3 µM; in assay [8] it was 22.4 µM; in [9] it was 64.8 µM; in assay [10], 20.4 µM. Further, the TGI in [1] was 39.8 µM; in assay [2], greater than 100 µM; in assay [3] it was greater than 100 µM; in assay [4] it was greater than 100 µM; in assay [5] it was greater than 100 µM; in assay [6], greater than 100 µM. For the same molecule, the TGI in assay [7] was greater than 100 µM; in assay [8], 74.5 µM; in assay [9] it was greater than 100 µM; in assay [10], 37.9 µM.
As for `Clc1cc(Cc2cc(Cl)c(Cl)c3c2OCOC3)c2c(c1Cl)COCO2`, the TGI in assay [1] is greater than 100 µM; in assay [2] it was 52.3 µM; in [3], greater than 100 µM; in [4] it was greater than 100 µM; in [5], greater than 100 µM; in [6], greater than 100 µM. Further, the TGI is greater than 100 µM in [7], 43.9 µM in assay [8], greater than 100 µM in assay [9] and 63 µM in assay [10].
On to `O=c1c2ccccc2n(C[C@H]2CO2)c2ccccc12`, for which the GI50 in [1] is 1.82 µM; in [2] it was 1.77 µM; in assay [3] it was 1.42 µM; in assay [4], 2.34 µM; in assay [5] it was 2.24 µM; in [6] it was 1.52 µM. For the same molecule, the GI50 was 0.302 µM in assay [7], 2.4 µM in assay [8], 1.65 µM in assay [9] and 2.13 µM in assay [10]. The TGI worked out at 7.3 µM in [1]; 3.68 µM in assay [2]; 4.52 µM in assay [3]; 6.77 µM in assay [4]; 7.91 µM in assay [5]; 2.9 µM in assay [6]. Moreover, the TGI turned out to be 4.37 µM in assay [7], 7.89 µM in [8], 3.19 µM in assay [9] and 5.84 µM in [10].
As to `N#C/C(=C/c1ccc[nH]1)P(=O)(O)O`, the TGI in assay [1], in [2], in assay [3], in assay [4], in assay [5] and in [6] was greater than 100 µM each time. Moreover, the TGI in [7], in assay [8], in assay [9] and in [10] was greater than 100 µM in each case.
For `N#Cc1nc2c(S(=O)(=O)c3ccccc3)c(N)n(Cc3cccnc3)c2nc1C#N`, the GI50 in assay [1] is 9.35 µM; in assay [2], 3.25 µM; in [3] it was 40 µM; in [4], 26.1 µM; in assay [5], greater than 100 µM; in [6], greater than 100 µM. Further, the GI50 is 8.59 µM in assay [7], greater than 100 µM in assay [8], 3.7 µM in [9] and 17.4 µM in assay [10]. Moreover, the TGI in assay [1] is 33.6 µM; in assay [2] it was 23.7 µM; in assay [3], greater than 100 µM; in [4] it was 97 µM; in [5] it was greater than 100 µM; in assay [6], greater than 100 µM. The TGI is greater than 100 µM in assay [7], greater than 100 µM in assay [8], 27.3 µM in [9] and 41.4 µM in [10].
Consider `Cn1c(/C=C(\C#N)c2ccccc2)nc2c(N3CCOCC3)nc(Cl)nc21`, for which the GI50 was 1.47 µM in assay [1]; 1.42 µM in assay [2]; 1.63 µM in assay [3]; 1.82 µM in assay [4]; 0.386 µM in assay [5]; 1.64 µM in assay [6]. Further, the GI50 in [7] is 0.393 µM; in assay [8], 1.13 µM; in assay [9], 1.45 µM; in [10] it was 1.58 µM. In addition, the TGI in assay [1] was 2.97 µM; in [2], 2.74 µM; in assay [3] it was 3.2 µM; in assay [4] it was 3.24 µM; in [5], 1.47 µM; in [6], 3.01 µM. The TGI turned out to be 2.1 µM in assay [7], 2.5 µM in assay [8], 2.86 µM in assay [9] and 3.51 µM in assay [10].
In the case of `COC1CC2CCC(C)C(O)(O2)C(=O)C(=O)N2CCCCC2C(=O)OC(C(C)CC2CCC(O)C(OC)C2)CC(=O)C(C)C=C(C)C(O)C(OC)C(=O)C(C)CC(C)/C=C/C=C/C=C1C` (stereo not drawn), the GI50 in assay [1] is 0.0523 µM; in assay [2], less than 0.005 µM; in assay [3], 0.0688 µM; in assay [4], 5.62 µM; in assay [7], less than 0.005 µM; in assay [8], less than 0.005 µM. Further, the GI50 in [9] is less than 0.005 µM; in assay [10], 0.159 µM. The TGI in assay [1] turned out to be 10 µM; in assay [2] it was 11 µM; in [3], 15.5 µM; in assay [4] it was 19.7 µM; in assay [5], 10.8 µM; in assay [6], 9.24 µM. For the same molecule, the TGI amounted to 15.2 µM in assay [7], 10.5 µM in assay [8], 8.36 µM in assay [9] and 9.96 µM in assay [10].
On to `Ic1ccccc1-c1ccccc1`, for which the GI50 in assay [1], in assay [2], in [3], in assay [4], in assay [5] and in assay [6] was greater than 100 µM in each case. Moreover, the GI50 in [7] is 18.3 µM; in assay [8], greater than 100 µM; in assay [9] it was 96.2 µM; in [10] it was greater than 100 µM. Also, the TGI in [1], in assay [2], in assay [3], in assay [4], in assay [5] and in [6] was greater than 100 µM in each case. The TGI in assay [7], in assay [8], in assay [9] and in [10] was greater than 100 µM in each case.
Take `O=C1NC(O)C(c2c[nH]c3ccccc23)=C1c1c[nH]c2ccccc12` (stereo not drawn): the GI50 in [1], in [2], in [3], in [4], in assay [5] and in assay [6] was greater than 25 µM in each case. The GI50 in assay [7] is greater than 23.7 µM; in assay [8], greater than 25 µM; in assay [9] it was greater than 25 µM; in assay [10], greater than 25 µM. The TGI in assay [1], in assay [2], in [3], in assay [4], in [5] and in [6] was greater than 25 µM in each case. In addition, the TGI in assay [7], in assay [8], in [9] and in [10] was greater than 25 µM in each case.
For `C=C(CN1C(=O)[C@H]2CCCN2C(=O)c2ccccc21)c1ccc(C(=O)O)cc1`, the GI50 in assay [1], in [2], in assay [3], in assay [4], in assay [5] and in [6] was greater than 100 µM throughout. The GI50 in assay [7], in [8], in assay [9] and in assay [10] was greater than 100 µM each time. The TGI in assay [1], in assay [2], in [3], in assay [4], in assay [5] and in assay [6] was greater than 100 µM each time. Besides, the TGI in assay [7], in assay [8], in assay [9] and in assay [10] was greater than 100 µM in each case.
